Reference: patent US20250099433A1, “COMPOSITION AND METHOD FOR TREATMENT OF GRAM NEGATIVE BACTERIAL INFECTION” (The Research Foundation for the State University of New York, priority 2021, published 2025)
In brackets after ≈: the same amount, converted by molar mass. Several values for one entry are separate records, joined by “and”; a condition that tells them apart may be missing. Identical values can stand only once. Like-named read-outs stand apart in the source and are kept apart here.

Columns and labels:
P. aeruginosa PAO1 [1] = test: MIC by microbroth dilution, P. aeruginosa PAO1; settings: for MIC: Pseudomonas aeruginosa, PAO1, read-out: MIC (μM) (PAO1)
[2] = test system: efflux-pump mutant strain (ΔMexABCDXY) (paEP); test: MIC by microbroth dilution, efflux-pump mutant P. aeruginosa; settings: for MIC: Pseudomonas aeruginosa, read-out: MIC (μM) (paEP)
Description: Bacterial Strains. […] The efflux-pump deficient P. aeruginosa strain (ΔMexABCDXY), N150, was derived from PAO1.
Minimum Inhibitory Concentration (MIC) Measurements.

paLpxC [3] = target: T1, paLpxC (Pseudomonas aeruginosa (strain ATCC 15692 / DSM 22644 / CIP 104116 / JCM 14847 / LMG 12228 / 1C / PRS 101 / PAO1), UniProt P47205); test: biochemical; format: binding; settings: for tR (min) Fluorescence assay: tR = 1/koff; for kon: read-out: Kon (μM^−1s^−1); for residence time fold longer than 1: fluorescence assay
T1 sequence (P47205 1-299): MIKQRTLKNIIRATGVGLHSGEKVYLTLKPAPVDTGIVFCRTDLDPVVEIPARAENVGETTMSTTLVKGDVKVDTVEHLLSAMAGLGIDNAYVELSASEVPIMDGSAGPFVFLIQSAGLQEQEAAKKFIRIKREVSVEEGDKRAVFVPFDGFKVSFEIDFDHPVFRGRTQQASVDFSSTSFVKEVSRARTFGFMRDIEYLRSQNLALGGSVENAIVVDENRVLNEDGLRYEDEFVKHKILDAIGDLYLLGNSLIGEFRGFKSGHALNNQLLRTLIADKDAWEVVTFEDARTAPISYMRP

P. aeruginosa PAO1 [4] = test: Post-antibiotic effect (PAE) in P. aeruginosa PAO1; settings: PAO1, 4xMIC for 1 h, 37° C.
Description: Post-antibiotic effect of the paLpxC inhibitors on wild-type P. aeruginosa. […] The experimental data points are the mean values from triplicate, independent measurements, and the error bars represent the standard deviation from the mean.
After incubating the plates overnight at 37° C., CFUs were enumerated, and the PAE values were calculated using a standard method where the time for the bacteria to recover 1 log post drug washout compared to the control was determined (FIG. 17, Table 6).
Post-antibiotic Effect (PAE). PAEs were determined using P. aeruginosa PAO1. […] The compound was washed out by diluting the culture 1000-fold into fresh CAMH-II medium, and the regrowth of bacteria was monitored by taking 100 μL aliquots each hour and plating serial dilutions on Muller-Hinton agar plates.

paLpxC [5] = target: T1, paLpxC; test: Spin column (Penefsky) residence time assay on paLpxC; format: binding; settings: 37° C.
Description: FIG. 14. Spin-column assay. A spin-column assay was used to quantify the residence time of inhibitors on paLpxC at 37° C. […] Samples were then subjected to size exclusion chromatography at different times using a Spin-Trap G-25 column (800×g for 2 min). […] Preincubated solutions of enzyme (10 μM) and inhibitor (10 or 20 μM) were diluted 200-fold into a solution of PT855 (1 μM) at 37° C. Aliquots of this solution were withdrawn at various times and subjected to centrifugal gel filtration chromatography using PD SpinTrap™ G-25 columns. The fluorescence of the eluate was quantified, and the data were fit to a single exponential equation to obtain koff (FIG. 14, Tables 4 and 5).
Inhibitor Residence Time Measurements using a Spin Column Assay. […] Subsequently, 10 μL of the incubation mixture was diluted into 2 mL of the same buffer containing 1 μM of PT855, and 100 μL of this mixture was then aliquoted at different time points and loaded onto a PD SpinTrap™ G-25 column (Cytiva) that had been equilibrated with buffer prior to sample loading. […] The fluorescence intensities corresponding to loading diluted EI without the fluorescent competitor and loading the competitor alone were measured separately to determine the dynamic range and endpoint of the assay. […] Rates were calculated by fitting the change in fluorescence intensity over time to a one-phase association equation in GraphPad Prism.

[6] = 37° C., fluorescence competition

Row | Structure (SMILES) | MIC (P. aeruginosa PAO1 [1]) | MIC [2] | Ki (paLpxC [3]; [6]) | tR (min) Fluorescence assay (paLpxC [3]; 37° C.) | koff (paLpxC [3]; read-out: Koff (s^−1)) | kon (paLpxC [3]) | other results
1 | CC1(Cn2cc(-c3ccc(-c4ccn(CCC(C)(C(=O)NO)S(C)(=O)=O)c(=O)c4)cc3)nn2)COC1 (racemic) [PT911, N-hydroxy-2-methyl-4-(4-(4-(1-((3-methyloxetan-3-yl)methyl)-1H-1,2,3-triazol-4-yl)phenyl)-2-oxopyridin-1(2H)-yl)-2-(methylsulfonyl)butanamide] | 25 µM (≈ 12.9 µg/mL) | 1.56 µM (≈ 0.804 µg/mL) |  |  |  |  | 
2 | CC(CCn1ccc(-c2ccc(-c3cn(CCO)nn3)cc2)cc1=O)(C(=O)NO)S(C)(=O)=O (racemic) [PT912, N-hydroxy-4-(4-(4-(1-(2-hydroxyethyl)-1H-1,2,3-triazol-4-yl)phenyl)-2-oxopyridin-1(2H)-yl)-2-methyl-2-(methylsulfonyl)butanamide] | > 50 µM | > 12.5 µM | 3.7 ± 2.3 pM | 92.3 ± 11.2 min | 0.00018 ± 2e-05 s⁻¹ | 59.6 ± 22.9 µM⁻¹ s⁻¹ | 
3 | CC(CCn1ccc(-c2ccc(CN3CCOCC3)cc2)cc1=O)(C(=O)NO)S(C)(=O)=O (racemic) [PT904, N-hydroxy-2-methyl-2-(methylsulfonyl)-4-(4-(4-(morpholinomethyl)phenyl)-2-oxopyridin-1(2H)-yl)butanamide] | 50 µM (≈ 23.2 µg/mL) |  | 96.8 ± 3 pM | 4.7 ± 0.2 min | 0.0035 ± 0.0001 s⁻¹ | 36.4 ± 0.4 µM⁻¹ s⁻¹ | 
4 | CC(CCn1ccc(-c2ccc(N)cc2)cc1=O)(C(=O)NO)S(C)(=O)=O (stereo not shown) [PT919] |  |  | 4 ± 3 pM | 121.15 ± 30 min |  |  | MIC (μM) (PAO1) (P. aeruginosa PAO1 [1]; wild-type P. aeruginosa PAO1): 12.5 µM (≈ 4.74 µg/mL); Kon (paLpxC [3]; [6]): 6.427e+07 ± 5.976e+07 M⁻¹ s⁻¹; koff (paLpxC [3]; [6]): 0.000143 ± 0.00003 s⁻¹; MIC (μM) (paEP) ([2]; efflux-pump mutant ΔMexABCDXY): 0.78 µM (≈ 0.296 µg/mL)
5 | CC(CCn1ccc(-c2ccc(-c3cn(CC45CC(C4)C5)nn3)cc2)cc1=O)(C(=O)NO)S(C)(=O)=O (racemic) [PT913, 4-(4-(4-(1-(bicyclo[1.1.1]pentan-1-ylmethyl)-1H-1,2,3-triazol-4-yl)phenyl)-2-oxopyridin-1(2H)-yl)-N-hydroxy-2-methyl-2-(methylsulfonyl)butanamide] | 12.5 µM (≈ 6.4 µg/mL) | 0.78 µM (≈ 0.399 µg/mL) | 2.1 ± 1.6 pM | 123.8 ± 37.2 min and 124.0 ± 37.2 min | 0.00015 ± 5e-05 s⁻¹ | 85.2 ± 32.5 µM⁻¹ s⁻¹ | residence time fold longer than 1 (paLpxC [3]; 37° C.): ~3 fold; PAE (h) 4x (P. aeruginosa PAO1 [4]): 4 h and 4.0 ± 0.2 h
6 | CC(CCn1ccc(-c2ccc(-c3cn(Cc4ccccn4)nn3)cc2)cc1=O)(C(=O)NO)S(C)(=O)=O (racemic) [PT914, N-hydroxy-2-methyl-2-(methylsulfonyl)-4-(2-oxo-4-(4-(1-(pyridin-2-ylmethyl)-1H-1,2,3-triazol-4-yl)phenyl)pyridin-1(2H)-yl)butanamide] | 6.25 µM (≈ 3.27 µg/mL) | 0.2 µM (≈ 0.105 µg/mL) | 5.5 ± 3.4 pM | 118.5 ± 44.0 min | 0.00016 ± 6e-05 s⁻¹ | 37.2 ± 23 µM⁻¹ s⁻¹ | MIC fold lower than that for PT810 (P. aeruginosa PAO1 [1]): 2 fold; residence time fold longer than 1 (paLpxC [3]; 37° C.): ~3 fold
7 | CC(CCn1ccc(-c2ccc(NC(=O)Cc3ccccc3)cc2)cc1=O)(C(=O)NO)S(C)(=O)=O (racemic) [PT924, N-hydroxy-2-methyl-2-(methylsulfonyl)-4-(2-oxo-4-(4-(2-phenylacetamido)phenyl)pyridin-1(2H)-yl)butanamide] | 50 µM (≈ 24.9 µg/mL) | 3.12 µM (≈ 1.55 µg/mL) | 95.4 ± 16.2 pM | 4.0 ± 1.0 min | 0.0043 ± 0.0009 s⁻¹ | 44.8 ± 5.4 µM⁻¹ s⁻¹ | 
8 | CC(CCn1ccc(-c2ccc(-c3cn(Cc4ccncc4)nn3)cc2)cc1=O)(C(=O)NO)S(C)(=O)=O (racemic) [PT915, N-hydroxy-2-methyl-2-(methylsulfonyl)-4-(2-oxo-4-(4-(1-(pyridin-4-ylmethyl)-1H-1,2,3-triazol-4-yl)phenyl)pyridin-1(2H)-yl)butanamide] | 50 µM (≈ 26.1 µg/mL) | 6.25 µM (≈ 3.27 µg/mL) |  |  |  |  | 
9 | CC(CCn1ccc(-c2ccc(-c3cn(Cc4ccncn4)nn3)cc2)cc1=O)(C(=O)NO)S(C)(=O)=O (racemic) [PT916, N-hydroxy-2-methyl-2-(methylsulfonyl)-4-(2-oxo-4-(4-(1-(pyrimidin-4-ylmethyl)-1H-1,2,3-triazol-4-yl)phenyl)pyridin-1(2H)-yl)butanamide] | 50 µM (≈ 26.2 µg/mL) | 3.12 µM (≈ 1.64 µg/mL) | 4.2 ± 2.2 pM | 102.7 ± 20.2 min | 0.00017 ± 3e-05 s⁻¹ | 44.3 ± 14.5 µM⁻¹ s⁻¹ | 
10 | COc1ccc(-c2ccc(CNC3(C(=O)NO)CCS(=O)(=O)CC3)cc2F)cc1 [PT921, 4-(((2-fluoro-4′-methoxy-[1,1′-biphenyl]-4-yl)methyl)amino)-N-hydroxytetrahydro-2H-thiopyran-4-carboxamide 1,1-dioxide] | 0.8 µM (≈ 0.338 µg/mL) | 0.1 µM (≈ 0.0422 µg/mL) | 14.4 ± 2.5 pM | 34.3 ± 1.0 min | 0.00049 ± 1e-05 s⁻¹ | 34.5 ± 6.3 µM⁻¹ s⁻¹ | 
11 | CC(CCn1ccc(-c2ccc(-c3cn(CC4CCCCC4)nn3)cc2)cc1=O)(C(=O)NO)S(C)(=O)=O (racemic) [PT910, 4-(4-(4-(1-(cyclohexylmethyl)-1H-1,2,3-triazol-4-yl)phenyl)-2-oxopyridin-1(2H)-yl)-N-hydroxy-2-methyl-2-(methylsulfonyl)butanamide] | 50 µM (≈ 26.4 µg/mL) | 3.12 µM (≈ 1.65 µg/mL) | 5.5 ± 3.4 pM | 100.2 ± 18.5 min | 0.00017 ± 3e-05 s⁻¹ | 31 ± 3 µM⁻¹ s⁻¹ | 
12 | COc1ccc(-c2ccn(CCC(C)(C(=O)NO)S(C)(=O)=O)c(=O)c2)cc1 (racemic) [PT902, N-hydroxy-4-(4-(4-methoxyphenyl)-2-oxopyridin-1(2H)-yl)-2-methyl-2-(methylsulfonyl)butanamide] | 3.12 µM (≈ 1.23 µg/mL) | 0.8 µM (≈ 0.316 µg/mL) |  |  |  |  | 
13 | C=CCn1cc(-c2ccc(-c3ccn(CCC(C)(C(=O)NO)S(C)(=O)=O)c(=O)c3)cc2)nn1 (racemic) [PT907, 4-(4-(4-(1-allyl-1H-1,2,3-triazol-4-yl)phenyl)-2-oxopyridin-1(2H)-yl)-N-hydroxy-2-methyl-2-(methylsulfonyl)butanamide] | 12.5 µM (≈ 5.89 µg/mL) | 0.78 µM (≈ 0.368 µg/mL) | 6.1 ± 5.7 pM | 82.8 ± 26.0 min | 0.00022 ± 7e-05 s⁻¹ | 52 ± 29.5 µM⁻¹ s⁻¹ | tR (min) (Spin column assay) (paLpxC [5]; direct displacement): 146.5 ± 44.0 min; k (min^−1), spin-column assay (paLpxC [5]; first-order fit): 0.007 ± 0.002 min⁻¹
14 | CC(CCn1ccc(-c2ccc(-c3cn(Cc4ccc([N+](=O)[O-])cc4)nn3)cc2)cc1=O)(C(=O)NO)S(C)(=O)=O (racemic) [PT918, N-hydroxy-2-methyl-2-(methylsulfonyl)-4-(4-(4-(1-(4-nitrobenzyl)-1H-1,2,3-triazol-4-yl)phenyl)-2-oxopyridin-1(2H)-yl)butanamide] | 6.25 µM (≈ 3.54 µg/mL) | 0.1 µM (≈ 0.0567 µg/mL) | 7 ± 1 pM | 78.5 ± 8.4 min | 0.00021 ± 2e-05 s⁻¹ | 30.7 ± 0.1 µM⁻¹ s⁻¹ | 
15 | C[C@@H](O)C(NC(=O)c1ccc(-c2cn(Cc3ccccc3)nn2)cc1)C(=O)NO (stereo partly drawn) [PT903, 4-(1-benzyl-1H-1,2,3-triazol-4-yl)-N-((3R)-3-hydroxy-1-(hydroxyamino)-1-oxobutan-2-yl)benzamide] | > 50 µM | > 12.5 µM |  |  |  |  | binding to paLpxC (Kon, Koff, tR, Ki) (paLpxC [3]; [6]): No binding was observed
16 | CC(CCn1ccc(-c2ccc(-c3cnnn3Cc3ccccc3)cc2)cc1=O)(C(N)=O)S(C)(=O)=O (stereo not shown) [PT925, 4-(4-(4-(1-benzyl-1H-1,2,3-triazol-5-yl)phenyl)-2-oxopyridin-1(2H)-yl)-2-methyl-2-(methylsulfonyl)butanamide] | 50 µM (≈ 25.3 µg/mL) | 12.5 µM (≈ 6.32 µg/mL) |  | 9 min and 9.0 ± 0.9 min |  |  | 
17 | CC(CCn1ccc(-c2ccc(-c3cn(Cc4cccnc4)nn3)cc2)cc1=O)(C(=O)NO)S(C)(=O)=O (racemic) [PT917, N-hydroxy-2-methyl-2-(methylsulfonyl)-4-(2-oxo-4-(4-(1-(pyridin-3-ylmethyl)-1H-1,2,3-triazol-4-yl)phenyl)pyridin-1(2H)-yl)butanamide] |  |  | 3.2 ± 0.2 pM | 121.3 ± 4.4 min | 0.00014 ± 1e-05 s⁻¹ | 42.8 ± 1.3 µM⁻¹ s⁻¹ | residence time fold longer than 1 (paLpxC [3]; 37° C.): ~3 fold
18 | CC(CCn1ccc(-c2ccc(C(=O)NCc3ccccc3)cc2)cc1=O)(C(=O)NO)S(C)(=O)=O (racemic) [PT923, N-benzyl-4-(1-(4-(hydroxyamino)-3-methyl-3-(methylsulfonyl)-4-oxobutyl)-2-oxo-1,2-dihydropyridin-4-yl)benzamide] | 25 µM (≈ 12.4 µg/mL) | 3.12 µM (≈ 1.55 µg/mL) | 274 ± 76.6 pM | 8.0 ± 1.2 min | 0.0021 ± 0.0003 s⁻¹ | 23.8 ± 18.8 µM⁻¹ s⁻¹ | 
